The source of these data is patent US20020193377A1, “Quinazolines as MMP-13 inhibitors” (priority 2001, published 2002).

In one series the target is T1, human collagenase-3 catalytic domain enzyme (MMP13) (Homo sapiens, UniProt P45452).
T1 construct: human collagenase-3 catalytic domain enzyme
Nature of the series: MMP13CD Thiopeptolide Assay. It counts as biochemical.
Conditions: not given
The protocol: MMP13CD Thiopeptolide Assay: Proteolysis of the thiopeptolide substrate Ac-Pro-Leu-Gly-thioester-Leu-Leu-Gly-OEt is used as the primary screen to determine IC50 values for MMP13 inhibitors. A 100 μl reaction contains 50 mM HEPES, 10 mM CaCl2, pH 7.0 (RT), 1 mM 5,5′-dithiobis(2-nitrobenzoic acid) (DTNB), 100 μM substrate, inhibitor in 2.0% DMSO and 2.5 nM human collagenase-3 catalytic domain enzyme. Inhibitors are screened from 100 μM to 0.5 nM. […] Percentage of control velocity in inhibited treatments is plotted against inhibitor concentration to calculate IC50 values.
The term IC50 denotes the concentration needed to halve the response being measured. In the case of `O=C(NCc1ccc2c(c1)OCO2)c1ccc2[nH]c(=O)n(Cc3ccc4c(c3)OCO4)c(=O)c2c1` [Example 28, 3-(Benzo[1,3]dioxol-5-ylmethyl)-2,4-dioxo-1,2,3,4-tetrahydroquinazoline-6-carboxylic acid (benzo[1,3]dioxol-5-ylmethyl)amide], it took 9 nM to reach half-maximal inhibition (IC50).

Consider `COC(=O)c1ccc(Cn2c(=O)c3cc(C(=O)NCc4ccc(OC)cc4)ccc3n(C)c2=O)cc1` [Example 34, Methyl 4-[6-(4-methoxy-benzylcarbamoyl)-1-methyl-2,4-dioxo-1,4-dihydro-2H-quinazolin-3-ylmethyl]-benzoate], for which the IC50 came out at 26 nM. Still for that read-out and setting: the result for `O=C(OCc1ccncc1)c1ccc2[nH]c(=O)n(Cc3ccccc3)c(=O)c2c1` [Example 39, 4-Pyridylmethyl 3-benzyl-2,4-dioxo-1,2,3,4-tetrahydroqinazoline-6-carboxylate] reads 1 nM; that for `O=C(NCc1ccc2c(c1)OCO2)c1ccc2c(c1)c(=O)n(Cc1ccccc1)c(=O)n2CC1CC1` [Example 31, 3-Benzyl-1-cyclopropylmethyl-2,4-dioxo-1,2,3,4-tetrahydroquinazoline-6-carboxylic acid (benzo[1,3]dioxol-5-ylmethy)amide], 1700 nM; that for `Cn1c(=O)n(Cc2ccc(Cl)cc2)c(=O)c2cc(C(=O)NCc3ccc4c(c3)OCO4)ccc21` [Example 26, 3-(4Chlorobenzyl)-1-methyl-2,4-dioxo-1,2,3,4-tetrahydroquinazoline-6-carboxylic acid (benzo[1,3]dioxol-5-ylmethyl)amide], 96 nM. Still for that read-out and setting: the figure for `COc1ccc(CNC(=O)c2ccc3c(c2)c(=O)n(Cc2ccc(C(=O)N(C)C)cc2)c(=O)n3C)cc1` [Example 50, 3-(4-Dimethylcarbamoyl-benzyl)-1-methyl-2,4-dioxo-1,2,3,4-tetrahydro quinazoline-6-carboxylic acid 4-methoxy-benzylamide] is 96 nM. Same read-out and setting: the figure for `Cn1c(=O)n(Cc2ccccc2)c(=O)c2cc(C(=O)NCc3ccncc3)ccc21` [Example 14, 3-Benzyl-1-methyl-2,4-dioxo-1,2,3,4-tetrahydroquinazoline-6-carboxylic acid (4-pyridylmethyl)amide] is 57 nM; for `O=C(NCc1ccc(Cl)cc1)c1ccc2[nH]c(=O)n(Cc3ccccc3)c(=O)c2c1` [Example 7, 3-Benzyl-2,4-dioxo-1,2,3,4-tetrahydroquinzaoline-6carboxylic acid 4-chlorobenzylamide] it is 21 nM. In the case of `Cn1c(=O)c2cc(C(=O)NCc3ccc4c(c3)OCO4)ccc2n(C)c1=O` [Example 27, 1,3-Dimethyl-2,4-dioxo-1,2,3,4-tetrahydroquinazoline-6-carboxylic acid (benzo[1,3]dioxol-5-ylmethyl)amide], the midpoint of inhibition, the IC50, lay at 29 nM. Still for that read-out and setting: the figure for `Cn1c(=O)n(Cc2ccccc2)c(=O)c2cc(C(=O)OCc3ccc4c(c3)OCO4)ccc21` [Example 42, Benzo[1,3]dioxol-5-ylmethyl3-benzyl-1-methyl-2,4-dioxo-1,2,3,4-tetrahydroquinazoline-6-carboxylate] is 31 nM. For the molecule `C=CCn1c(=O)c2cc(C(=O)NCc3ccc(OC)cc3)ccc2n(C)c1=O` [Example 52, 3-Allyl-1-methyl-2,4-dioxo-1,2,3,4-tethydro-quinazoline-6-carboxylic acid 4-methoxy-benzylamiide], the IC50 was 14 nM.

Test system in a further series: not given
Experiment: not given
Conditions: not given
Usually melting point stands for the temperature, or range, at which the solid turns liquid. For the molecule `COc1ccc(CNC(=O)c2ccc3c(c2)c(=O)n(Cc2ccc(C4(C(=O)O)CC4)cc2)c(=O)n3C)cc1`, the melting point was 179 to 181 °C. In the case of `Cn1c(=O)n(Cc2ccccc2)c(=O)c2cc(C(=O)OC/C=C/c3cccnc3)ccc21`, the melting point was 184 °C. Same read-out and setting: the result for `COc1ccc(CNC(=O)c2ccc3c(c2)c(=O)n(Cc2ccc(-c4noc(=O)[nH]4)cc2)c(=O)n3C)cc1` reads 305 °C. Same read-out and setting: the result for `O=C(NCc1ccc2c(c1)OCO2)c1ccc2[nH]c(=O)n(Cc3ccc4c(c3)OCO4)c(=O)c2c1` [Example 28, 3-(Benzo[1,3]dioxol-5-ylmethyl)-2,4-dioxo-1,2,3,4-tetrahydroquinazoline-6-carboxylic acid (benzo[1,3]dioxol-5-ylmethyl)amide] reads 245.2 °C; that for `COc1ccc(CNC(=O)c2ccc3c(c2)c(=O)n(Cc2ccc(C4(C(=O)OC(C)(C)C)CC4)cc2)c(=O)n3C)cc1`, 148 to 149 °C; that for `Cn1c(=O)n(Cc2ccccc2)c(=O)c2cc(S(=O)(=O)Cc3ccccc3)ccc21`, 173 to 175 °C. The same measure, in the same setting: the result for `COc1cccc(CNC(=O)c2ccc3c(c2)c(=O)n(Cc2ccc(Cl)cc2)c(=O)n3C)c1` reads 178 to 180 °C; that for `Cn1c(=O)n(Cc2ccc(F)cc2)c(=O)c2cc(C(=O)NCc3cccnc3)ccc21`, 166 to 168 °C; that for `Cn1c(=O)n(Cc2ccccc2)c(=O)c2cc(C(=O)OC/C=C/c3ccncc3)ccc21`, 147 °C. `COc1cc(CNC(=O)c2ccc3c(c2)c(=O)n(Cc2ccc(F)cc2)c(=O)n3C)ccn1` registered a melting point of 174 to 175 °C. Still for that read-out and setting: the figure for `Cn1c(=O)n(Cc2ccccc2)c(=O)c2cc([S+]([O-])Cc3ccccc3)ccc21` (stereo not drawn) is 182 to 183 °C. Turning to `COc1ccc(CNC(=O)c2ccc3c(c2)c(=O)n(Cc2ccc(C(=O)OCCN(C)C)c(OC)c2)c(=O)n3C)cc1`, the melting point turned out to be 130 °C. `Cn1c(=O)n(Cc2ccc(Cl)cc2)c(=O)c2cc(C(=O)NCc3cccnc3)ccc21` showed a melting point of 173 to 175 °C. For the molecule `Cn1c(=O)n(Cc2ccccc2)c(=O)c2cc(SCc3ccccc3)ccc21`, the melting point is 117 to 118 °C.

The subject of a further series is MMP-1, MMP-2, MMP-3, MMP-9 and MMP-13.
Experiment: not given
The note with it: prior art, non-selective inhibitors; cited from earlier work.
For `COc1ccc(S(=O)(=O)N(Cc2cccnc2)[C@@H](C(=O)NO)C(C)C)cc1` [CGS-27.023A], the “inhibition of several MMPs (in words)” value was “inhibit both MMP-1, MMP-2, MMP-3, MMP-9 and MMP-13”.

On to `CC1(C)SCCN(S(=O)(=O)c2ccc(Oc3ccncc3)cc2)[C@H]1C(=O)NO` [AG-3340], for which the “inhibition of several MMPs (in words)” value is “inhibit both MMP-1, MMP-2, MMP-3, MMP-9 and MMP-13”.
